Experimental findings from ChEMBL document CHEMBL4818987, “Recent advances of podophyllotoxin/epipodophyllotoxin hybrids in anticancer activity, mode of action, and structure-activity relationship: An update (2010-2020)” (Eur J Med Chem, 2020) are described below.

Some results are limits rather than exact numbers.

As usually defined, the IC50 is the midpoint of a concentration-inhibition curve.

Common to all, as to assay type: functional, cell-based
One assay has as its system SW480. Put plainly: Antiproliferative activity against human SW480 cells incubated for 48 hrs by MTT assay. The settings on record: SW480, 48 h. On the technique in general: Tetrazolium dyes change colour on reduction, which living cells bring about.
Another assay relates to HL-60. Put plainly: Antiproliferative activity against human HL-60 cells incubated for 48 hrs by MTT assay. The following applies: HL-60, 48 h.
The next assay deals with A549. The assay can be described thus: Antiproliferative activity against human A549 cells incubated for 48 hrs by MTT assay. The settings on record: A549, 48 h.
The test system of the next assay is MCF7. The assay can be described thus: Antiproliferative activity against human MCF7 cells incubated for 48 hrs by MTT assay. The following applies: MCF7, 48 h.
A further assay relates to SMMC-7721. The assay can be described thus: Antiproliferative activity against human SMMC-7721 cells incubated for 48 hrs by MTT assay. The following applies: SMMC-7721, 48 h.
The subject of the next assay is B16. The assay can be described thus: Antiproliferative activity against […] cells incubated for 48 to 72 hrs by MTT assay. The settings on record: Mus musculus.
Another assay concerns HepG2. The assay can be described thus: Antiproliferative activity against human HepG2 cells incubated for 48 to 72 hrs by MTT assay.
In another assay the test system is MKN-45. The assay can be described thus: Antiproliferative activity against human MKN-45 cells incubated for 48 to 72 hrs by MTT assay.
For the next assay, the system named is NCI-H1993. Put plainly: Antiproliferative activity against human NCI-H1993 cells incubated for 48 to 72 hrs by MTT assay.

In the case of `COc1cc([C@@H]2c3cc4c(cc3[C@@H](n3cc(COC(=O)CCCCCNC(=O)CCCC[C@@H]5SC[C@@H]6NC(=O)N[C@@H]65)nn3)[C@H]3COC(=O)[C@H]23)OCO4)cc(OC)c1O`, the IC50 in the assay on SW480, in the assay on HL-60, in the assay on A549, in the assay with MCF7 and with SMMC-7721 was more than 130 nM throughout.

With `CCCC(=O)O[C@@H]1[C@@H](OC(=O)CCC)[C@@H](O[C@@H]2c3cc4c(cc3[C@@H](c3cc(OC)c(O)c(OC)c3)[C@H]3C(=O)OC[C@@H]32)OCO4)OC[C@H]1OC(=O)CCC`, the IC50 with SW480, in the assay on HL-60, with A549, with MCF7 and in the assay on SMMC-7721 was more than 2900 nM each time.

Take `COc1cc([C@@H]2c3cc4c(cc3[C@H](OC(=O)CCCCCNC(=O)CCCC[C@@H]3SC[C@@H]5NC(=O)N[C@@H]53)[C@H]3COC(=O)[C@H]23)OCO4)cc(OC)c1OC`: the half-inhibitory concentration (IC50) with SW480, with HL-60, in the assay on A549, in the assay with MCF7 and in the assay on SMMC-7721 was more than 130 nM each time.

Take `COc1ccc(/C=C/C(=O)c2ccc(OCc3cn([C@H]4c5cc6c(cc5[C@@H](c5cc(OC)c(OC)c(OC)c5)[C@H]5C(=O)OC[C@@H]54)OCO6)nn3)c(OC)c2)cc1OC`: the IC50 in the assay with B16, with HepG2, in the assay on MKN-45 and in the assay with NCI-H1993 was 130 nM throughout.

For `COc1cc(OC)c(OC)cc1/C=C/C(=O)c1ccc(OCc2cn([C@H]3c4cc5c(cc4[C@@H](c4cc(OC)c(OC)c(OC)c4)[C@H]4C(=O)OC[C@@H]43)OCO5)nn2)c(OC)c1`, the IC50 in the assay on B16, in the assay on HepG2, with MKN-45 and with NCI-H1993 was 130 nM throughout.

In the case of `COc1cc(C(=O)/C=C/c2cc(OC)c(OC)c(OC)c2)ccc1OCc1cn([C@H]2c3cc4c(cc3[C@@H](c3cc(OC)c(OC)c(OC)c3)[C@H]3C(=O)OC[C@@H]32)OCO4)nn1`, the half-maximal inhibitory concentration (IC50) in the assay with B16, with HepG2, with MKN-45 and with NCI-H1993 was 130 nM throughout.

`COc1cc([C@@H]2c3cc4c(cc3[C@@H](NC(=O)CCCC[C@@H]3SC[C@@H]5NC(=O)N[C@@H]53)[C@H]3COC(=O)[C@H]23)OCO4)cc(OC)c1OC`: the IC50 with SW480, in the assay on HL-60, in the assay on A549, in the assay on MCF7 and in the assay on SMMC-7721 was more than 130 nM throughout.

Take `CCc1ccc(OCc2cn([C@H]3c4cc5c(cc4[C@@H](c4cc(OC)c(OC)c(OC)c4)[C@H]4C(=O)OC[C@@H]43)OCO5)nn2)cc1`: the IC50 in the assay on B16, in the assay with HepG2, with MKN-45 and in the assay with NCI-H1993 was 130 nM each time.

As to `COc1cc([C@@H]2c3cc4c(cc3[C@@H](n3cc(COC(=O)CCCC[C@@H]5SC[C@@H]6NC(=O)N[C@@H]65)nn3)[C@H]3COC(=O)[C@H]23)OCO4)cc(OC)c1O`, the half-maximal inhibitory concentration (IC50) in the assay on SW480, with HL-60, with A549, with MCF7 and in the assay with SMMC-7721 was more than 130 nM throughout.

On to `COc1cc(C(=O)/C=C/c2cccs2)ccc1OCc1cn([C@H]2c3cc4c(cc3[C@@H](c3cc(OC)c(OC)c(OC)c3)[C@H]3C(=O)OC[C@@H]32)OCO4)nn1`, for which the IC50 in the assay on B16, with HepG2, with MKN-45 and in the assay with NCI-H1993 was 130 nM in each case.

In the case of `COc1ccc(OCc2cn([C@H]3c4cc5c(cc4[C@@H](c4cc(OC)c(OC)c(OC)c4)[C@H]4C(=O)OC[C@@H]43)OCO5)nn2)cc1`, the IC50 in the assay on B16, with HepG2, in the assay with MKN-45 and in the assay with NCI-H1993 was 130 nM in each case.

On to `COc1ccc(SCc2cn([C@H]3c4cc5c(cc4[C@@H](c4cc(OC)c(OC)c(OC)c4)[C@H]4C(=O)OC[C@@H]43)OCO5)nn2)cc1`, for which the IC50 in the assay on B16, in the assay on HepG2, in the assay on MKN-45 and in the assay with NCI-H1993 was 130 nM in each case.

Take `COc1cc(C(=O)/C=C/c2ccsc2)ccc1OCc1cn([C@H]2c3cc4c(cc3[C@@H](c3cc(OC)c(OC)c(OC)c3)[C@H]3C(=O)OC[C@@H]32)OCO4)nn1`: the IC50 in the assay on B16, with HepG2, in the assay on MKN-45 and with NCI-H1993 was 130 nM each time.

Regarding `COc1cc([C@@H]2c3cc4c(cc3[C@H](n3cc(COc5cccc([N+](=O)[O-])c5)nn3)[C@H]3COC(=O)[C@H]23)OCO4)cc(OC)c1OC`, the IC50 with B16, with HepG2, in the assay on MKN-45 and in the assay on NCI-H1993 was 130 nM throughout.

Take `COc1ccc(OC(C)(C)c2cn([C@H]3c4cc5c(cc4[C@@H](c4cc(OC)c(OC)c(OC)c4)[C@H]4C(=O)OC[C@@H]43)OCO5)nn2)cc1`: the half-maximal inhibitory concentration (IC50) in the assay on B16, in the assay with HepG2, in the assay with MKN-45 and in the assay on NCI-H1993 was 130 nM throughout.

Turning to `COc1cc(C(=O)/C=C/c2ccncc2)ccc1OCc1cn([C@H]2c3cc4c(cc3[C@@H](c3cc(OC)c(OC)c(OC)c3)[C@H]3C(=O)OC[C@@H]32)OCO4)nn1`, the IC50 in the assay on B16, with HepG2, in the assay with MKN-45 and in the assay on NCI-H1993 was 130 nM in each case.

`COc1cc(C(=O)/C=C/c2ccc(F)cc2)ccc1OCc1cn([C@H]2c3cc4c(cc3[C@@H](c3cc(OC)c(OC)c(OC)c3)[C@H]3C(=O)OC[C@@H]32)OCO4)nn1`: the IC50 with B16, in the assay on HepG2, in the assay with MKN-45 and in the assay on NCI-H1993 was 130 nM throughout.

For `COc1cc([C@@H]2c3cc4c(cc3[C@H](n3cc(COc5ccc(C)c([N+](=O)[O-])c5)nn3)[C@H]3COC(=O)[C@H]23)OCO4)cc(OC)c1OC`, the IC50 with B16, in the assay with HepG2, with MKN-45 and in the assay on NCI-H1993 was 130 nM in each case.

Consider `COc1cc(C(=O)/C=C/c2ccc(C(F)(F)F)cc2)ccc1OCc1cn([C@H]2c3cc4c(cc3[C@@H](c3cc(OC)c(OC)c(OC)c3)[C@H]3C(=O)OC[C@@H]32)OCO4)nn1`, for which the IC50 in the assay on B16, with HepG2, with MKN-45 and with NCI-H1993 was 130 nM each time.

Regarding `COc1cc(C(=O)/C=C/c2ccc(N(C)C)cc2)ccc1OCc1cn([C@H]2c3cc4c(cc3[C@@H](c3cc(OC)c(OC)c(OC)c3)[C@H]3C(=O)OC[C@@H]32)OCO4)nn1`, the 50% inhibitory concentration (IC50) with B16, with HepG2, with MKN-45 and in the assay with NCI-H1993 was 130 nM throughout.

As for `COc1cc([C@@H]2c3cc4c(cc3[C@@H](OC(=O)CCCC[C@@H]3SC[C@@H]5NC(=O)N[C@@H]53)[C@H]3COC(=O)[C@H]23)OCO4)cc(OC)c1OC`, the IC50 in the assay with SW480, in the assay with HL-60, with A549, with MCF7 and in the assay with SMMC-7721 was more than 130 nM in each case.

Take `COc1cc([C@@H]2c3cc4c(cc3[C@@H](O[C@H]3O[C@H](COC(C)=O)[C@@H](OC(C)=O)[C@H](OC(C)=O)[C@H]3OC(C)=O)[C@H]3COC(=O)[C@H]23)OCO4)cc(OC)c1O`: the IC50 in the assay on SW480, in the assay on HL-60, with A549, in the assay with MCF7 and with SMMC-7721 was more than 140 nM in each case.

Consider `COc1cc([C@@H]2c3cc4c(cc3[C@@H](n3cc(COC(=O)CCCCCNC(=O)CCCC[C@@H]5SC[C@@H]6NC(=O)N[C@@H]65)nn3)[C@H]3COC(=O)[C@H]23)OCO4)cc(OC)c1OC`, for which the IC50 with SW480, in the assay on HL-60, with A549, in the assay with MCF7 and with SMMC-7721 was more than 130 nM each time.

As to `COc1cc([C@@H]2c3cc4c(cc3[C@H](n3cc(C(C)(C)Oc5ccc([N+](=O)[O-])cc5)nn3)[C@H]3COC(=O)[C@H]23)OCO4)cc(OC)c1OC`, the IC50 with B16, in the assay with HepG2, with MKN-45 and with NCI-H1993 was 130 nM in each case.

Turning to `COc1cc([C@@H]2c3cc4c(cc3[C@H](n3cc(CNC(=O)c5ccccc5Cl)nn3)[C@H]3COC(=O)[C@H]23)OCO4)cc(OC)c1OC`, the IC50 in the assay on B16, in the assay with HepG2, in the assay on MKN-45 and in the assay on NCI-H1993 was 130 nM each time.

For the molecule `COc1cc([C@@H]2c3cc4c(cc3[C@H](n3cc(COc5ccc6c(c5)OCO6)nn3)[C@H]3COC(=O)[C@H]23)OCO4)cc(OC)c1OC`, the IC50 in the assay with B16, in the assay with HepG2, with MKN-45 and with NCI-H1993 was 130 nM in each case.

On to `COc1cc([C@@H]2c3cc4c(cc3[C@H](n3cc(COc5ccc(-c6ccccc6)cc5)nn3)[C@H]3COC(=O)[C@H]23)OCO4)cc(OC)c1OC`, for which the IC50 in the assay on B16, in the assay on HepG2, with MKN-45 and in the assay on NCI-H1993 was 150 nM in each case.

As for `COc1cc(C(C)=O)ccc1OCc1cn([C@H]2c3cc4c(cc3[C@@H](c3cc(OC)c(OC)c(OC)c3)[C@H]3C(=O)OC[C@@H]32)OCO4)nn1`, the IC50 in the assay with B16, in the assay on HepG2, with MKN-45 and in the assay on NCI-H1993 was 130 nM in each case.
